Entries after “also recorded” stand apart in the source; their conditions may differ. Where two headings read alike, the source gives them in different places.
Assays:
[1] = test system: endogenous SACs in oocytes; conditions: ref Lane et al., 1991; cited from earlier work
epithelial Na^+ channels = conditions: no separate reference printed; cited from earlier work
SACs = conditions: cited from earlier work
[2] = test system: SACs in audiovestibular hair cells; conditions: ref Jorgensen and Ohmori 1988; cited from earlier work
[3] = test system: swelling-activated whole-cell current in adult astrocytes; assay type: cell-based, rat
[4] = test system: swelling-activated anion current in astrocytoma cells; conditions: ref Bakhramov et al. 1995; cited from earlier work
[5] = test system: SACs (cation-selective stretch-activated channels) in outside-out patches from adult rat astrocytes; assay: SAC activity in outside-out patches, pressure-activated, patch clamp; assay type: cell-based
[6] = test system: glutamate-stimulated K^+ influx in neonatal astrocytes; conditions: ref Bender et al. 1998; cited from earlier work
NMDA channel = conditions: ref Bender et al. 1998; cited from earlier work
[7] = test system: rabbit hearts, atrial fibrillation associated with dilatation; conditions: ref Bode et al. 1999; cited from earlier work
[8] = test system: ventricular myocytes from rabbits with aortic regurgitation-induced CHF; assay: Myocyte cell volume during perforated patch voltage clamp; assay type: cell-based, rabbit
[9] = test system: voltage-sensitive whole-cell currents of astrocytes; assay: Voltage-sensitive whole-cell currents, perforated patch; assay type: cell-based, rat; conditions: concentration not printed at place
[10] = test system: whole-cell current of rabbit CHF ventricular myocytes in 1.5T hypertonic saline; assay type: cell-based; conditions: 0.4 μM GsMTx-4, 1.5T hypertonic saline, averages from five cells
[11] = test system: normal electrical activity of the heart, rabbit; conditions: Langendorff-perfused rabbit hearts, preliminary; ref Bode et al. 1999; cited from earlier work
[12] = test system: ICl,swell (outwardly rectifying Cl^− current), rabbit CHF ventricular myocytes; assay: Swelling-activated anion current in CHF ventricular myocytes, perforated patch; assay type: cell-based
[13] = Overall charge of the toxin; assay type: physicochemical; conditions: from the sequence
K^+ channel = conditions: Fig. 8 legend; ref Swartz and MacKinnon 1995; cited from earlier work
E-type Ca^2+ channels = conditions: Fig. 8 legend; ref Newcomb et al. 1998; cited from earlier work
[14] = introduction, ref Hamill and McBride 1996, Sachs and Morris 1998

N=C(N)NC(=O)c1nc(Cl)c(N)nc1N [Amiloride]
block of endogenous SACs in oocytes [1]: blocks
affinity for epithelial Na^+ channels (epithelial Na^+ channels): nanomolar affinity
blocking activity against SACs (SACs; [14]): low affinity blocking activity
block of SACs in audiovestibular hair cells [2]: blocks

O=S(=O)(O)c1cc(N=C=S)ccc1C=Cc1ccc(N=C=S)cc1S(=O)(=O)O [DIDS, 4,4′-diisothiocyanatostilbene-2,2′-disulphonic acid, reference compound]
effect on swelling-activated current (in words) ([3]; 50 μM DIDS, 30 s hypotonic saline, especially at depolarized potentials, n = 6): significant reduction in current
reduction of swelling-activated anion current [4]: significant reduction

COc1ccc([C@@H]2Sc3ccccc3N(CCN(C)C)C(=O)[C@@H]2OC(C)=O)cc1 [Diltiazem]
blocking activity against SACs (SACs; [14]): low affinity blocking activity

N[C@@H](CCC(=O)O)C(=O)O [Glutamate, reference compound]
Activity on astrocyte SACs ([5]; 10 μM, n = 2 trials, outside-out patches at −50 mV): No activation
activation of SACs in unstretched patches ([5]; 10 μM, unstretched patches that contained SACs): did not activate SACs

C[C@]12N[C@H](Cc3ccccc31)c1ccccc12 [MK801]
effect on glutamate-stimulated K^+ influx [6]: inhibits glutamate-stimulated K^+ influx
affinity as NMDA open-channel blocker (NMDA channel): nanomolar affinity

COC(=O)C1=C(C)NC(C)=C(C(=O)OC)C1c1ccccc1[N+](=O)[O-] [Nifedipine, reference compound]
Activity on astrocyte SACs [5]: No block

CC[N+](CC)(CC)CC [tetraethylammonium]
blocking activity against SACs (SACs): low affinity blocking activity

GsMTx-4
suppression of cardiac arrhythmias [7]: ability to suppress cardiac arrhythmias
cell volume reduction ([8]; 0.4 μM GsMTx-4, 1.0T solution, averages from five cells): 7%
cell volume after osmotic shrinkage ([8]; 0.4 μM GsMTx-4, 1.5T solution, averages from five cells): unaffected
cell volume reduction relative to that produced by 1.5T saline ([8]; 0.4 μM GsMTx-4, isotonic): ~40%
effect on peak swelling-activated current (in words) ([3]; 5 μM GsMTx-4, 30 s after hypotonic exposure): significantly reduced the peak current response
reduction in peak swelling-activated current ([3]; 5 μM GsMTx-4, 30 s, after subtracting resting current, representative cell (Fig. 9 C)): ~75%
change in reversal potential of swelling-activated current ([3]; 5 μM GsMTx-4, statistically indistinguishable from 0 mV): +2 mV
reduction in swelling-activated anion current ([3]; adult astrocytes, discussion): 40–50%
reduction in swelling-activated whole-cell current ([3]; hypotonically swollen astrocytes, potential not printed at place): ~40%
recovery of swelling currents after washout ([3]; ∼4 min after washout of 5 μM GsMTx-4): partially recovered
activity against voltage-sensitive whole-cell currents [9]: no effect on whole-cell voltage-sensitive currents; also recorded: did not effect voltage-sensitive currents; also recorded: negligible activity
effect on whole-cell current [10]: unaffected; also recorded: did not affect membrane currents
I/I0 (ratio of blocked to unblocked current) ([5]; from data of Fig. 6, outside-out patches, −50 mV): 0.083
dissociation rate constant k d ([5]; from washout time constant, n = 7 patches): 0.21 s⁻¹
state dependence of block ([5]; mechanism of action, closed channels): can act on closed channels
block of SACs ([5]; outside-out patches, 1:1,000 dilution, 8 μg/ml, rapid upon superfusion): the block was complete
effect on normal electrical activity of the heart [11]: doesn't block normal electrical activity of the heart
effect on ICl,swell ([12]; 0.4 μM GsMTx-4, isotonic (1.0T), averages from five cells): no effect
effect on anion current ([12]; rabbit dilated cardiomyopathy model, concentration not printed at place): did not affect the anion current
overall charge [13]: +5

Hanatoxin
K^+ channel block (K^+ channel): K^+ channel blocker

SNX-482: peptide toxin that blocks E-type Ca^2+ channels (GVDKAGCRYMFGGCSVNDDCCPRLGCHSLFSYCAWDLTFSD; UniProt P56854 1-41, looked up)
E-type Ca^2+ channel block (E-type Ca^2+ channels): blocks E-type Ca^2+ channels

— publication PMC2217226 (The Journal of General Physiology, 2000)
